Test systems include HT29 colon; A498 renal; OVCAR-8 ovarian; MDA-MB-435; MALME-3M melanoma; SF-268 CNS; SK-MEL-28 melanoma; MOLT-4 leukemia; HCT-15 colon; SR leukemia.
Holding throughout (assay): NCI anticancer screen, dose series, 48 h

Structures are written as SMILES.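 Compound exposure: 48 hours, 5 concentrations, 96-well plates. GI50 is the concentration that inhibits growth by half. TGI: concentration producing complete growth inhibition.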

Take `C=C1C(=O)O[C@H]2[C@H]1CC/C(Cn1cc(Cn3ccc4ccccc43)nn1)=C\CC[C@@]1(C)O[C@@H]21`: the GI50 with HT29 colon was 1.7 µM; in the test with A498 renal, 4.3 µM; with OVCAR-8 ovarian, 2.73 µM; in the test with MDA-MB-435, 1.7 µM; with MALME-3M melanoma, 1.59 µM; with SF-268 CNS, 1.82 µM. Also, the GI50 in the test on SK-MEL-28 melanoma was 1.67 µM; in the test with MOLT-4 leukemia it was 1.48 µM; with HCT-15 colon it was 1.3 µM; with SR leukemia, 0.345 µM. Moreover, the TGI was determined as 3.27 µM in the test on HT29 colon; 16.6 µM in the test on A498 renal; 8.22 µM in the test with OVCAR-8 ovarian; 3.39 µM in the test on MDA-MB-435; 3.34 µM with MALME-3M melanoma; 3.63 µM in the test with SF-268 CNS. In addition, the TGI in the test on SK-MEL-28 melanoma was determined as 3.25 µM; in the test with MOLT-4 leukemia it was 5.11 µM; in the test on HCT-15 colon it was 2.77 µM; with SR leukemia it was 3.71 µM.

Regarding `Cc1cc(C)c(O)c(Cc2cccc(Cc3cc(C)cc(C)c3O)c2O)c1`, the TGI with HT29 colon, in the test on A498 renal, in the test with OVCAR-8 ovarian, in the test on MDA-MB-435, in the test on MALME-3M melanoma and in the test with SF-268 CNS was > 100 µM throughout. Also, the TGI in the test with SK-MEL-28 melanoma, in the test on MOLT-4 leukemia, in the test with HCT-15 colon and with SR leukemia was > 100 µM in each case.

`O=C1C(=O)c2ccccc2-c2ccccc21`: the GI50 in the test with HT29 colon is 3.4 µM; in the test on A498 renal it was 1.8 µM; with OVCAR-8 ovarian, 0.662 µM; in the test on MDA-MB-435, 0.198 µM; with MALME-3M melanoma it was 1.79 µM; in the test on SF-268 CNS, 1.61 µM. For the same compound, the GI50 was 1.77 µM in the test with SK-MEL-28 melanoma, 1.56 µM in the test on MOLT-4 leukemia, 1.05 µM with HCT-15 colon and 0.555 µM in the test with SR leukemia. In addition, the TGI in the test on HT29 colon is > 100 µM; in the test with A498 renal it was 3.32 µM; in the test with OVCAR-8 ovarian it was 2.15 µM; in the test with MDA-MB-435 it was 0.416 µM; in the test with MALME-3M melanoma, 3.31 µM; with SF-268 CNS, 3.15 µM. The TGI was 3.24 µM in the test with SK-MEL-28 melanoma, 4.75 µM in the test with MOLT-4 leukemia, 2.92 µM with HCT-15 colon and 7.82 µM in the test with SR leukemia.

In the case of `O=[N+]([O-])c1cc(CCl)ccc1CCl`, the TGI turned out to be 3.22 µM in the test on HT29 colon; 16.1 µM in the test on A498 renal; 7.17 µM in the test with OVCAR-8 ovarian; 5.05 µM with MDA-MB-435; 3.51 µM in the test with MALME-3M melanoma; 4.21 µM in the test with SF-268 CNS. Further, the TGI in the test with SK-MEL-28 melanoma came out at 5.01 µM; in the test on MOLT-4 leukemia, 12.6 µM; with HCT-15 colon, 3.64 µM; in the test with SR leukemia, 5.17 µM.

On to `O=C1CCCC2=C(N1)C(=O)C=CC2=O`, for which the TGI was 59 µM in the test on HT29 colon; > 70.4 µM with A498 renal; 64.2 µM in the test with OVCAR-8 ovarian; 32.7 µM with MDA-MB-435; 56.6 µM with MALME-3M melanoma; 67.9 µM in the test on SF-268 CNS. For the same compound, the TGI in the test on SK-MEL-28 melanoma stood at 60.4 µM; in the test with MOLT-4 leukemia, 31.5 µM; in the test on HCT-15 colon it was 62.6 µM; in the test on SR leukemia, 57.8 µM.

Turning to `CCCc1cc2cc(-n3nc(C)c4c3CC(C)(C)CC4=O)cc(NC3CCC(O)CC3)c2c(=O)[nH]1` (stereo not given), the GI50 with HT29 colon is 0.0308 µM; with A498 renal, 0.437 µM; with OVCAR-8 ovarian, 0.519 µM; in the test with MDA-MB-435, 0.0812 µM; with MALME-3M melanoma, 0.142 µM; with SF-268 CNS, 1.8 µM. For the same compound, the GI50 is 0.232 µM in the test with SK-MEL-28 melanoma, 0.186 µM with MOLT-4 leukemia, 0.167 µM in the test with HCT-15 colon and 0.122 µM with SR leukemia. The TGI in the test with HT29 colon was > 100 µM; in the test on A498 renal, > 100 µM; with OVCAR-8 ovarian it was > 100 µM; in the test with MDA-MB-435 it was > 100 µM; in the test with MALME-3M melanoma, 3.34 µM; in the test on SF-268 CNS, > 100 µM. For the same compound, the TGI in the test on SK-MEL-28 melanoma, with MOLT-4 leukemia, in the test with HCT-15 colon and in the test with SR leukemia was > 100 µM in each case.

For `CN1CCC[C@@H]1CCO[C@](C)(c1ccccc1)c1ccc(Cl)cc1`, the GI50 with HT29 colon is 3.06 µM; in the test with A498 renal, 10.7 µM; with OVCAR-8 ovarian, 10.8 µM; in the test with MDA-MB-435 it was 2.46 µM; with MALME-3M melanoma, 1.79 µM; in the test with SF-268 CNS, 9 µM. Further, the GI50 in the test on SK-MEL-28 melanoma was 2 µM; in the test on MOLT-4 leukemia, 4.12 µM; in the test on HCT-15 colon it was 4.4 µM; with SR leukemia, 2.32 µM. Besides, the TGI in the test on HT29 colon was 11.3 µM; in the test on A498 renal, 23 µM; in the test on OVCAR-8 ovarian it was 24.7 µM; in the test on MDA-MB-435, 8.19 µM; with MALME-3M melanoma, 4.85 µM; in the test with SF-268 CNS, 21.5 µM. Besides, the TGI with SK-MEL-28 melanoma is 4.36 µM; in the test with MOLT-4 leukemia it was 18.1 µM; in the test with HCT-15 colon it was 16 µM; in the test on SR leukemia, 9.59 µM.

`COc1ccc2c(c1)CCc1c(-c3noc4c3CCc3cc(OC)ccc3-4)noc1-2`: the TGI with HT29 colon, in the test on A498 renal, in the test with OVCAR-8 ovarian, in the test on MDA-MB-435, with MALME-3M melanoma and in the test on SF-268 CNS was > 100 µM each time. The TGI with SK-MEL-28 melanoma, in the test on MOLT-4 leukemia, in the test on HCT-15 colon and in the test on SR leukemia was > 100 µM in each case.

In the case of `COc1ccc(-c2cnc3ccnn3c2-c2cc(OC)c(OC)c(OC)c2)cc1`, the GI50 was 3.01 µM in the test with HT29 colon; 0.293 µM with A498 renal; 7.25 µM with OVCAR-8 ovarian; 0.282 µM in the test on MDA-MB-435; 5.41 µM with MALME-3M melanoma; 5.86 µM in the test with SF-268 CNS. The GI50 in the test on SK-MEL-28 melanoma is 10 µM; in the test with MOLT-4 leukemia it was 4.62 µM; with HCT-15 colon, 2.12 µM; with SR leukemia it was 1.66 µM. Further, the TGI in the test on HT29 colon is > 100 µM; in the test on A498 renal, 4.47 µM; in the test with OVCAR-8 ovarian, > 100 µM; in the test with MDA-MB-435 it was 0.976 µM; in the test on MALME-3M melanoma, > 100 µM; with SF-268 CNS, > 100 µM. Also, the TGI in the test with SK-MEL-28 melanoma, in the test on MOLT-4 leukemia, in the test on HCT-15 colon and in the test with SR leukemia was > 100 µM in each case.

For the origin of these results see PubChem BioAssay (NCI).
